Reference: patent US12295997B2, “Prostate neoantigens and their uses” (Janssen Biotech, Inc., priority 2020, dated 2025)

Test system: CD8+ and CD4+ T cells (autologous CD3+ Pan-T cells isolated from human normal PBMCs)
Assay: Exogenous autologous normal donor restimulation assay (15-mer overlapping peptide pools on CD1c+ dendritic cells, TNFα/IFNγ flow cytometry)
Format: cell-based
Conditions: 15-mer overlapping peptide pool; for Maximum Fold Change Over Background CD4+ cells / Maximum Fold Change Over Background CD8+ cells / Maximum Frequency of TNFα/IFNγ Double Positive CD4+ T cells / Maximum Frequency of TNFα/IFNγ Double Positive CD8+ T cells: Table 25; for Maximum Fold Change Over Background CD4+ cells: TNFα+IFNγ+ CD4+ T cells; for Maximum Fold Change Over Background CD4+ cells / Maximum Fold Change Over Background CD8+ cells: highest fold change over negative control across normal donors; for Maximum Fold Change Over Background CD8+ cells: TNFα+IFNγ+ CD8+ T cells; for Maximum Frequency of TNFα/IFNγ Double Positive CD4+ T cells / Maximum Frequency of TNFα/IFNγ Double Positive CD8+ T cells: highest frequency across normal donors; for Max. Fold Change over background CD4+ TNFαINFγ double positive DP / Max. Fold Change over background CD8+ TNFαINFγ double positive DP / Max. Frequency of CD4+ TNFαINFγ DP / Max. Frequency of CD8+ TNFαINFγ DP: Table 28, additional neoantigens, highest across normal donors
Description: CD1c+ Dendritic Cells (DC) isolated from human normal PBMCs were thawed using media (IMDM (Gibco) supplemented with glutamine, HEPES, 5% human serum (Sigma), and 1× Pen-Strep). DC cells were resuspended in media supplemented with IL-4 (Peprotech, 80 ng/mL) and GM-CSF (Gibco, 80 ng/mL), plated in 6 well microplates, and rested overnight at 37° C. (5% CO2). The following day, DC cells were counted and plated in a 96 well round bottom microplate at a concentration of 30,000 viable cells per well. Lyophilized peptides (15-mer overlapping peptides) were solubilized in 100% DMSO and pooled by neoantigen to between 5 mg/mL and 20 mg/mL. Neoantigen peptides pools were added to DCs for a final concentration of […] and rested for 2 hours at 37° C. (5% CO2). CEF Peptide Pool “Plus” (Cellular Technologies, Ltd.) was utilized as a positive control and DMSO at the same final concentration as the experimental peptides was utilized as a negative control. After 2 hours, DC cells were irradiated with 50 gray of ionizing radiation. Autologous CD3+ Pan-T cells isolated from human normal PBMCs were thawed using media. Following irradiation, autologous Pan-T cells were added to the irradiated DCs at 300,000 viable cells per well. Human IL-15 (Peprotech) was added to all wells at final concentration of 10 ng/mL.
Plates were incubated at 37° C. (5% CO2) for a total of 12 days. Media was refreshed every 2-3 days with IL-15 (10 ng/mL final concentration) and IL-2 (R&D systems, 10 IU/mL final concentration). On day 11 cells were re-stimulated with identical experimental peptide pools or controls, at same concentration as peptide stimulation on Day 1. Protein Inhibitor Cocktail (eBioscience) was added to every well and plate was incubated overnight at 37° C. (5% CO2).
On day 12, cells were stained for intracellular flow cytometry analysis. The cells were washed with PBS and stained with Live/Dead Fixable Aqua Dead Cell stain (Thermo-Fisher). Following the live/dead stain, cells were blocked using Biotin-Free Fc Receptor Blocker (Accurate Chemical & Scientific Corp). Extracellular cellular flow panel (1 μL/antibody per well in 50 μL) consisted of CD3 PerCP-Cy5.5 (Biolegend), CD4 BV421 (Biolegend), and CD8 APC-Cy7 (Biolegend). After extracellular staining, cells were fixed using Foxp3/fTranscription Factor Staining Buffer Set (eBioscience) and stained for intracellular proteins (1:50 dilution) using TNFα FITC (R&D Systems) and IFNγ BV785 (Biolegend). Cells were washed and resuspended in stain buffer and analyzed using a BD Celesta flow cytometer.
Flow cytometry cell staining analysis was completed using FlowJo v10. Cells were gated on live, singlet, CD3+ cells. The CD8+ and CD4+ T cells were analyzed for TNFα/IFNγ expression and the frequency of double positive TNFα/IFNγ CD8+ and the frequency of double positive TNFα/IFNγ CD4+ T cells were recorded. Responses were assessed to be positive when the frequency of double positive TNFα/IFNγ CD8+ or TNFα/IFNγ CD4+ T cells due to stimulation with an experimental peptide pool was increased greater than or equal to 3-fold over the DMSO only negative control for that donor and at least 0.01%.
(§1) Overlapping 15-mer peptides were designed to span each neoantigen incorporated into NeoGAd20 and NeoMVA to assess their ability to activate T cells using the exogenous autologous normal donor restimulation assay described in Example 1 as pools using TNFα and IFNγ production by CD8^+ and CD4^+ T cells as a readout.
as §1, with “Immunogenicity of various additional identified neoantigens was assessed. Overlapping” for “Overlapping”, “similarly to what was done in Example 11” for “incorporated into NeoGAd20 and NeoMVA”

Substance	Maximum Fold Change Over Background CD4+ cells	Maximum Fold Change Over Background CD8+ cells	Maximum Frequency of TNFα/IFNγ Double Positive CD4+ T cells	Maximum Frequency of TNFα/IFNγ Double Positive CD8+ T cells	Max. Fold Change over background CD4+ TNFαINFγ double positive DP	Max. Fold Change over background CD8+ TNFαINFγ double positive DP	Max. Frequency of CD4+ TNFαINFγ DP	Max. Frequency of CD8+ TNFαINFγ DP
HVVGYGHLDTSGSSSSSSWP (listed as Homo sapiens) [FUS15, D2HGDH->GAL3ST2 gene fusion]	2.79	1.75	0.039	0.028	–	–	–	–
IARELHQFAFDLLIKSH (listed as Homo sapiens) [Neoantigen M84, AR T878A]	35.84	1.39	0.31	0.03	–	–	–	–
IIDSDKIMAVCMGCLLTRHVQCQAMEMQQ (listed as Homo sapiens) [AS54, ABCC4 alternative splicing]	–	–	–	–	17.87	88.15	0.18	8.33
KENDVREVCDVYLQMQIFFHFKFRSYFH (listed as Homo sapiens) [AS10, CHRNA5 alternative splicing]	–	–	–	–	3.97	4.33	0.23	0.08
KEQILAVASLVSSQSIHPSWGQSPLSRI (listed as Homo sapiens) [FUS9, AP5S1->MAVS gene fusion]	–	–	–	–	203.97	1.82	0.77	0.07
KIQNKNCPD (listed as Homo sapiens) [AS23, ZNF614 alternative splicing]	5.08	3.24	0.01	0.07	–	–	–	–
KMHFSLKEHPPPPCPP (listed as Homo sapiens) [FUS19, GTF2F1->PSPN gene fusion]	3.15	1.88	0.013	0.030	–	–	–	–
KRSFAVTERII (listed as Homo sapiens) [AS13, GRIN3A alternative splicing]	1.96	1.67	0.05	0.10	–	–	–	–
KVLNEIDAVVTVPPSLSTSQIPQGCCIIL (listed as Homo sapiens) [AS20, PFKFB4 alternative splicing]	–	–	–	–	1.36	3.81	0.05	0.12
KWNKNWTATLGALTIRGHKLLCHLPHLLSSVQQTCRSSSR (listed as Homo sapiens) [AS46, SERINC5 alternative splicing]	–	–	–	–	157.98	11.6	0.29	0.87
LELELSEGVCFRLR (listed as Homo sapiens) [FUS10, DIP2A->DIP2A-IT1 gene fusion]	–	–	–	–	10.86	2.42	0.04	0.09
LQERMELLACGAERGAGGWGGGGGGGGGDRRGGGGSAPALADFAGGRG (listed as Homo sapiens) [FUS24, DMPK->SIX5 gene fusion]	–	–	–	–	4.4	8.53	0.05	0.64
LTFLDFIQVTLRVMSGSQMENGSSYFFKPFSWGLGVGLSAWLCVMLT (listed as Homo sapiens) [AS1, ABCC4 alternative splicing]	–	–	–	–	3.57	8.15	0.02	0.11
LVLGVLSGHSGSRL (listed as Homo sapiens) [AS8, CACNA1D alternative splicing]	4.08	54.55	0.049	0.600	–	–	–	–
MFLRKEQQVGPHSFSML (listed as Homo sapiens) [AS14, IQCG alternative splicing]	–	–	–	–	1.49	3.81	0.06	0.12
MS2 (TDIVKQSV; listed as Homo sapiens)	–	–	–	–	15.12	36.92	0.1	0.48
MS4 (SYFSLTNIFNFV; listed as Homo sapiens)	–	–	–	–	367.35	24.13	2.43	0.76
MS5 (EFSPETCAFRLS; listed as Homo sapiens)	–	–	–	–	126.05	32.89	0.2	1.95
MS7 (KKDLELIL; listed as Homo sapiens)	–	–	–	–	10.52	6.67	0.09	0.12
MS9 (SALSGNSWV; listed as Homo sapiens)	–	–	–	–	455.63	1.38	1.72	0.1
MS10 (TVRAILL; listed as Homo sapiens)	–	–	–	–	74.17	3.42	0.28	0.13
MS11 (GSLHFHEVLK; listed as Homo sapiens)	–	–	–	–	3.4	3.81	0.13	0.12
NSKMALNSEALSVVSE (listed as Homo sapiens) [FUS5, TMPRSS2->ERG gene fusion]	3.43	32.50	0.048	0.390	–	–	–	–
P27 (LHPQRETFTPRWSGANYWKLAFPVGAEGTFPAAATQRGVVRPA; listed as Homo sapiens) [Neoantigen P27]	–	–	–	–	45.38	7.87	0.05	0.59
